Earlier results as cited in patent US8765743B2, “Compounds” (Glaxosmithkline Intellectual Property Development Limited, priority 2008, dated 2014).
Read-outs that look alike come from different tables or passages of the source.

Columns and labels:
CK2 protein kinase = CK2 protein kinase (Homo sapiens, UniProt P68400)
CK2 protein kinase, sequence (P68400 whole entry): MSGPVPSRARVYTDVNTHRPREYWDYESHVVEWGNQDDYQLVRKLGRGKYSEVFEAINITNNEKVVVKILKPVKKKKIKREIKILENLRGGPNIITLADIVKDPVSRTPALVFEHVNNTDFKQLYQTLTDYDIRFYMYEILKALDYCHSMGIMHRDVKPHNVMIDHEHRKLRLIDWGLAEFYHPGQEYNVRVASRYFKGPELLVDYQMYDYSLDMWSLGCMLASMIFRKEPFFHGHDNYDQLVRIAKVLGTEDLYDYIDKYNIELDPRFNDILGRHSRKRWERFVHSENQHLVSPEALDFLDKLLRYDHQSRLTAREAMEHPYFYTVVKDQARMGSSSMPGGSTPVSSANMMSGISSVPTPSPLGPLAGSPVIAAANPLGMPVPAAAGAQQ

| Compound | IC50 (Class I PI3-kinases; Fruman et al. 1998, read-out: IC50 values against each of these PI3-kinases) | IC50 (CK2 protein kinase) | IC50 (Class I PI3-kinases; read-out: IC50 values against each of the various Class I PI3-kinases) |
| --- | --- | --- | --- |
| O=c1cc(N2CCOCC2)oc2c(-c3ccccc3)cccc12 [LY294002] | 15 to 20 µM | 5 to 10 µM | – |
| wortmannin | – | – | 0.001 to 0.01 µM |
